Data on 18 compounds can be found in patent publication US8003627B2, “Urokinase inhibitors” (Universiteit Antwerpen, priority 2005, dated 2011).

The target in one assay is T1, plasmin (Homo sapiens, UniProt P00747).
T1 construct: uPA mediates the proteolytic cleavage of plasminogen to give plasmin
The assay is described as follows: Selectivity: plasmin inhibition, chromogenic substrate S-2366. Type of assay: biochemical. On the procedure:
(§1) The IC50 values for plasmin, tPA, thrombin and FXa were determined in the same way as for uPA. […] FX is activated with Russel's Viper Venom.
(§2) Approximately 5 mU of enzyme, and 145 μl of buffer. For tPA and thrombin Tris buffer, pH 8.3, for FXa, Tris buffer pH 8.3 with 2.5 mM CaCl2, for plasmin Tris buffer pH 7.4, and for trypsin Tris buffer pH 8.2 was used. The selectivity index was calculated as (IC50 Enzyme X)/IC50 uPA, where X is tPA, thrombin, plasmin or FXa.

Another assay concerns the target thrombin (Homo sapiens, UniProt P00734). The assay is described as follows: Selectivity: thrombin inhibition, chromogenic substrate S-2366. Type of assay: biochemical. The procedure:
as §1, §2

The target in a further assay is tPA (Homo sapiens, UniProt P00750). The assay is described as follows: Selectivity: tPA inhibition, chromogenic substrate S-2288. The assay is classed as biochemical. As to conditions: 1.25 mM substrate, Tris pH 8.3. On the procedure:
as §1, §2

Another assay deals with FXa (Homo sapiens, UniProt P00742). The assay is described as follows: Selectivity: FXa inhibition, chromogenic substrate S-2772. Type of assay: biochemical. Particulars: for inhibition at 250 µM: read-out: % inhibition at given concentration, FXa. The procedure:
as §1, §2

The target of assay [1] is T2, uPA (Homo sapiens, UniProt P00749). The assay is described as follows: biochemical. The assay is classed as biochemical. Also noted: purchased Sigma-Aldrich. On the procedure:
The substrate was obtained from Chromogenix. The human enzyme was obtained from Sigma-Aldrich, the mouse uPA was obtained from Molecular Innovations.Inc (USA). […] A 50 mM Tris buffer, pH 8.8, was used. […] Activity measurements were routinely performed in duplicate. […] IC50 values were obtained by fitting the data with the 4 parameter logistics equation using Grafit 5. v=(vrange)/(1+exp(s*ln(abs(I0/IC50))))+back s: slope factor back: background v: rate I0: inhibitor concentration range: the fitted uninhibited value minus the background.
The equation assumes that y falls with increasing x.
(§3) Inhibitor stock solutions were prepared in DMSO and stored at −20° C. […] For a simple pseudo-first-order inactivation process, the activity after incubation with inhibitor (vi) varies with the inhibitor concentration (i) as described in the following equation: vi=v0·e^−kit, where v0 is the activity in absence of inhibitor, k is the second-order rate constant of inactivation, and t is the time.

In a further assay the target is T3, trypsin (Bos taurus, UniProt P00760).
T3 sequence (P00760 24-246): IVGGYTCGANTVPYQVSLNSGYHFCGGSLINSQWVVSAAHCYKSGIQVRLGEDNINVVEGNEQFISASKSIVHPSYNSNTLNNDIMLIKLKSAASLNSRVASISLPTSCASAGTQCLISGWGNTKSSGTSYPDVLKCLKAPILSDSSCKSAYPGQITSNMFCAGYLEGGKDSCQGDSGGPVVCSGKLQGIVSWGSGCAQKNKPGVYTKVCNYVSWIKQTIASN
The assay is described as follows: Selectivity: trypsin inhibition, chromogenic substrate BAPNA. Type of assay: biochemical. Particulars: 425 μM substrate, Tris pH 8.2. On the procedure: as §1, §2

Assay [2] has as its target T2, uPA. Type of assay: biochemical. On the set-up: purchased Sigma-Aldrich. As to conditions: apparent second order rate constant, 250 μM substrate. On the procedure: as §3
Assay [3] concerns the target T2, uPA. Particulars: Tamura et al. 2000; cited from earlier work.
[4] abbreviates: 580 μM substrate, Tris pH 7.4, read-out: IC50 (μM) Plasmin.
Where [5] appears, read: 580 μM substrate, Tris pH 8.3, read-out: IC50 (μM) Thrombin.
[6] abbreviates: 522 μM substrate, Tris pH 8.3 with […] CaCl2, read-out: IC50 (μM) FXa.
The mark [7] stands for this setting: 15-min pre-incubation at 37° C, 250 μM S-2444, Tris pH 8.8, read-out: IC50 (nM) uPA.

Like-named read-outs stand apart in the source and are kept apart here.

Chain of FXa (P00742 235-488 limits assumed): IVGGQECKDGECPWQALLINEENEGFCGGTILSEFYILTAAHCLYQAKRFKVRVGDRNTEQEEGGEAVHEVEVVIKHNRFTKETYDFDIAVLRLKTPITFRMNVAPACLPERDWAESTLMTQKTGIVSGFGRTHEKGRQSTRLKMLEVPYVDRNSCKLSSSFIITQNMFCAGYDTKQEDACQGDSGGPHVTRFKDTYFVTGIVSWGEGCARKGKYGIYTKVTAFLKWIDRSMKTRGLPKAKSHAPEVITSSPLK
Chain of FXa (P00742 41-179 partner limits assumed): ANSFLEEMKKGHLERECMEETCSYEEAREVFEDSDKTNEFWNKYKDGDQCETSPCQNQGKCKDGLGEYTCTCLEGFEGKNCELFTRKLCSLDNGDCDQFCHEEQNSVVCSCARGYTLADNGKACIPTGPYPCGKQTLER
Chain of tPA (P00750 36-562, species assumed): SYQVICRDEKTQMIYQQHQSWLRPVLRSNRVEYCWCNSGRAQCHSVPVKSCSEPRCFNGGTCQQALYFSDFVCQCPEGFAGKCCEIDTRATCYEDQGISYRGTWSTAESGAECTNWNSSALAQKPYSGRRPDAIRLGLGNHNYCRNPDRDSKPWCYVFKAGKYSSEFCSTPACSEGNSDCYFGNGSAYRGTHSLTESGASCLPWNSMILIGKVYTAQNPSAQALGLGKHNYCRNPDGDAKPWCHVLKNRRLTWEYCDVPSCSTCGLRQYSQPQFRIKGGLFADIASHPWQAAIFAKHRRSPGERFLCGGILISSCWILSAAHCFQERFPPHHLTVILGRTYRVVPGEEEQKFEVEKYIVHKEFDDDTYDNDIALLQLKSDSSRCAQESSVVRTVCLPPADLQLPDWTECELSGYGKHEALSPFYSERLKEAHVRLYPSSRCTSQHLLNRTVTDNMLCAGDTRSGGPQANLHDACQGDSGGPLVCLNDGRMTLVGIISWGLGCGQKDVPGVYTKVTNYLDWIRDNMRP
T1 sequence (P00747 581-810 limits assumed, species assumed): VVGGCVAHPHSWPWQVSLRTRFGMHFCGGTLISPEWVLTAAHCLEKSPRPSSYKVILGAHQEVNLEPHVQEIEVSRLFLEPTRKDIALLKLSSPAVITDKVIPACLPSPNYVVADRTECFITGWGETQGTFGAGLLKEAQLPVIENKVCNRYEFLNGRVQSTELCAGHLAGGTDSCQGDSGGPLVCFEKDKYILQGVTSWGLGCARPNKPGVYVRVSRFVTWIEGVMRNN
T1 sequence (P00747 97-580 partner limits assumed, species assumed): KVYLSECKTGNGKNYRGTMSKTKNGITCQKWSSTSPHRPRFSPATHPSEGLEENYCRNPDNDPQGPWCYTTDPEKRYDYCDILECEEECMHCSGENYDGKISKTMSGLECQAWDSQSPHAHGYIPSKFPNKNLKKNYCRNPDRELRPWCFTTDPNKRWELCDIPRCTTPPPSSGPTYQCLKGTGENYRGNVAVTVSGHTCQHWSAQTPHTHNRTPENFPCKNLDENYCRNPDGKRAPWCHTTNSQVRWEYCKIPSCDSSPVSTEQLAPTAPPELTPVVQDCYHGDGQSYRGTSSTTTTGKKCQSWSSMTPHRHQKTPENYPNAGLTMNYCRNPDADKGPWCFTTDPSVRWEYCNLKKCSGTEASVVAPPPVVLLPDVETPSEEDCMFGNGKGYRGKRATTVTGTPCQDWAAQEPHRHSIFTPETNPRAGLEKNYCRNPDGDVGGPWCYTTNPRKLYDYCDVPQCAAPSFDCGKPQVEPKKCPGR

`N=C(N)Nc1ccc(CC(NC(=O)OCc2ccccc2)P(=O)(Oc2ccccc2)Oc2ccccc2)cc1` (centres unmarked) [Compound 7b, Diphenyl 1-(benzyloxycarbonylamino)-2-(4-guanidinophenyl)-ethanephosphonate]: the IC50 at plasmin (setting [4]) turned out to be 3 ± 0.6 µM; on thrombin (setting [5]) it was 2.4 ± 0.4 µM; on tPA it was 12 ± 0.8 µM; on FXa (setting [6]), 100 ± 20 µM.

For the compound `N=C(N)Nc1ccc(CC(NC(=O)c2ccccc2)P(=O)(Oc2ccccc2)Oc2ccccc2)cc1` (centres unmarked) [Compound 7c, Diphenyl 1-(benzoylamino)-2-(4-guanidinophenyl)-ethanephosphonate], the IC50 on plasmin (setting [4]) was 14 ± 1 µM; at tPA, 125 µM; at uPA [1] (pH 8.8, read-out: IC50 (nM) uPA) it was 114 ± 11 nM; against FXa it was greater than 250 µM.

Regarding `Cc1ccccc1S(=O)(=O)NC(Cc1ccc(NC(=N)N)cc1)P(=O)(Oc1ccccc1)Oc1ccccc1` (centres unmarked) [Compound 7d, Diphenyl 1-(o-toluenesulfonylamino)-2-(4-guanidinophenyl)-ethanephosphonate], the IC50 on plasmin (setting [4]) came to 17 ± 2 µM; at thrombin (setting [5]), 11.9 ± 1.7 µM; on tPA it was 7.3 ± 0.5 µM; against trypsin, 0.17 ± 0.01 µM. Moreover, at FXa (at 62 μM), the “% inhibition at given concentration, FXa” value was 59% @.

With `CC(C)c1ccc(C(C)C)c(S(=O)(=O)NC(Cc2ccc(NC(=N)N)cc2)P(=O)(Oc2ccccc2)Oc2ccccc2)c1C(C)C` (centres unmarked) [Compound 7f, Diphenyl 1-(2,3,6-tri-isopropylbenzenesulfonyl)amino-2-(4-guanidinophenyl)-ethanephosphonate], the IC50 at plasmin (setting [4]) is roughly 125 µM; against tPA it was 16 ± 1 µM; on FXa (setting [6]), 20 ± 2 µM; against trypsin, 5.6 ± 0.04 µM. Further, the “% inhibition at given concentration, Thrombin” value on thrombin (at 250 μM) is listed as 60% @.

With `CS(=O)(=O)NC(Cc1ccc(NC(=N)N)cc1)P(=O)(Oc1ccccc1)Oc1ccccc1` (centres unmarked) [Compound 7g, Diphenyl 1-(methylsulfonylamino)-2-(4-guanidinophenyl)-ethanephosphonate], the IC50 is 11 ± 1 µM on plasmin (setting [4]), roughly 125 µM at thrombin, 8 ± 2 µM against tPA and roughly 250 µM on FXa.

As to `N=C(N)c1ccc(C(NC(=O)OCc2ccccc2)P(=O)(Oc2ccccc2)Oc2ccccc2)cc1` (centres unmarked) [Compound 8a, Diphenyl 1-(N-benzyloxycarbonylamino)-1-(4-amidinophenyl)methanephosphonate], the IC50 at plasmin (setting [4]) came out at 3.6 ± 0.4 µM; at thrombin (setting [5]) it was 0.288 ± 0.006 µM; on tPA, 66 ± 7 µM; at FXa (setting [6]) it was 6 ± 0.2 µM.

Turning to `N=C(N)c1ccc(CC(NC(=O)OCc2ccccc2)P(=O)(Oc2ccccc2)Oc2ccccc2)cc1` (centres unmarked) [Compound 8b, Diphenyl 1-(N-benzyloxycarbonylamino)-2-(4-amidinophenyl)ethanephosphonate], the IC50 at plasmin (setting [4]) came to 1.2 ± 0.1 µM; on thrombin (setting [5]) it was 20 ± 2 µM; against tPA it was 4 ± 2 µM. The inhibition at 250 µM on FXa came to 65%.

Regarding `CCC(NC(=O)OCc1ccccc1)(c1ccc(C(=N)N)cc1)P(=O)(Oc1ccccc1)Oc1ccccc1` (centres unmarked) [Compound 8c, Diphenyl 1-(N-benzyloxycarbonylamino)-1-(4-amidinophenyl)propanephosphonate], the IC50 at plasmin (setting [4]) came out at 6.2 ± 0.4 µM; on thrombin (setting [5]), 17 ± 2 µM; against tPA, 68 ± 9 µM; at FXa (setting [6]), 13.7 ± 1.3 µM; on trypsin, 3.5 ± 0.2 µM.

On to `CC(=O)Nc1ccc(OP(=O)(Oc2ccc(NC(C)=O)cc2)C(Cc2ccc(NC(=N)N)cc2)NC(=O)OCc2ccccc2)cc1` (centres unmarked) [Compound 9b, Di-(4-acetamidophenyl) 1-(benzyloxycarbonylamino)-2-[(4-guanidino)phenyl]ethanephosphonate], for which the IC50 at plasmin (setting [4]) was found to be 0.9 ± 0.2 µM; at thrombin (setting [5]), 0.39 ± 0.03 µM; against tPA it was 7 ± 1 µM; on uPA [1] (setting [7]), 4.2 ± 0.9 nM; on FXa (setting [6]), 100 ± 24 µM.

`CC(=O)Nc1ccc(OP(=O)(Oc2ccc(NC(C)=O)cc2)C(Cc2ccc(NC(=N)N)cc2)NS(C)(=O)=O)cc1` (centres unmarked) [Compound 9c, Di-(4-acetamidophenyl) 1-(methylsulfonylamino)-2-(4-guanidinophenyl)-ethanephosphonate]: the IC50 turned out to be 2 ± 0.4 µM at plasmin (setting [4]), 2.35 ± 0.06 µM at thrombin (setting [5]), 3.7 ± 0.4 µM against tPA and 3.5 ± 0.5 nM at uPA [1] (setting [7]). Also, the inhibition at 250 µM at FXa was 55%.

For `N=C(N)Nc1ccc(CC(N)P(=O)(Oc2ccccc2)Oc2ccccc2)cc1` (centres unmarked) [Compound 34d, Diphenyl 1-amino-2-(4-guanidinophenyl)ethylphosphonate], the IC50 at uPA [1] (setting [7]) was found to be 1600 ± 130 nM.

`COC(=O)NC(Cc1ccc(NC(=N)N)cc1)P(=O)(Oc1ccccc1)Oc1ccccc1` (centres unmarked) [Compound 35a, Methyl 1-(diphenoxyphosphoryl)-2-(4-guanidinophenyl)ethylcarbamate]: the IC50 was 12.8 ± 2 µM against plasmin, 16.6 ± 2.3 µM against thrombin, 23 ± 6 µM at tPA and 3.1 ± 0.5 nM at uPA [1] (setting [7]). At uPA [2], the “kapp (M^−1 · s^−1) uPA” value turned out to be 62000 M⁻¹ s⁻¹.

As for `CCOC(=O)NC(Cc1ccc(NC(=N)N)cc1)P(=O)(Oc1ccccc1)Oc1ccccc1` (centres unmarked) [Compound 35c, Ethyl 1-(diphenoxyphosphoryl)-2-(4-guanidinophenyl)ethylcarbamate], the IC50 was 16 ± 3 µM at plasmin (setting [4]), 3.8 ± 0.2 µM on thrombin (setting [5]), 57 ± 14 µM on tPA and 8 ± 3 nM on uPA [1] (setting [7]). The “kapp (M^−1 · s^−1) uPA” value at uPA [2] came to 40000 M⁻¹ s⁻¹.

On uPA [1], `CNC(=O)NC(Cc1ccc(NC(=N)N)cc1)P(=O)(Oc1ccccc1)Oc1ccccc1` (centres unmarked) [Compound 39a, Diphenyl 2-(4-guanidinophenyl)-1-(3-methylureido)ethylphosphonate] registered an IC50 of 101000 ± 6800 nM.

For `N=C(N)Nc1ccc(CC(NC(=O)NCc2ccccc2)P(=O)(Oc2ccccc2)Oc2ccccc2)cc1` (centres unmarked) [Compound 39b, Diphenyl 1-(3-benzylureido)-2-(4-guanidinophenyl)ethylphosphonate], the midpoint of inhibition against uPA [1], the IC50, lay at 43900 ± 3900 nM.

As for `CC(=O)NC(Cc1ccc(NC(=N)N)cc1)P(=O)(Oc1ccccc1)Oc1ccccc1` (centres unmarked) [Compound 41, Diphenyl 1-acetamido-2-(4-guanidinophenyl)ethylphosphonate], the IC50 is 57 ± 1.3 µM on plasmin (setting [4]), 32.2 ± 1.4 µM at thrombin (setting [5]) and 9.9 ± 0.8 nM against uPA [1].

For the compound “Diphenyl 1-(naphthalenesulfonylamino)-2-(4-guanidinophenyl)-ethanephosphonate [Compound 7e]”, the half-inhibitory concentration (IC50) on plasmin (setting [4]) was 1.2 ± 0.1 µM; on thrombin (setting [5]), 8.1 ± 0.8 µM; against tPA it was 44 ± 10 µM; at FXa (setting [6]), 27 ± 2 µM; on trypsin, 0.28 ± 0.05 µM.

As for Z-D-Ser-Ala-Arginal, on uPA [3], the IC50 was 0.019 µM and the “selectivity ratio toward tPA” value is on record as “more than 130”.
